Assays:
[1] = Rancimat test, oxidative stability of lard; details: for Induction Time / Anti-oxidant Index: lard samples; for Anti-oxidant Index: lard negative control = 1.00
Description: The potential anti-oxidative properties of the seven compounds was also tested. Experiments were performed using the Rancimat method, a common method for measurement of anti-oxidant activity of both synthetic and natural anti-oxidants. The method is based on measuring changes in electrical conductivity of water caused by the formation of short-chain compounds when fats and oils are oxidized under elevated temperature and accelerated aeration. Using lard samples, the effects of each of the seven compounds on the oxidative stability of lard was determined. The anti-oxidative activity levels of the compounds isolated from blueberry are shown below in Table 1. The levels of anti-oxidant activity can be compared with a known anti-oxidant compound BHT.

[2] = tested on: human colon (HCT-8) tumor cells; details: cited from earlier work
HL-60 cells = test: Cytotoxicity in human leukemia cells (HL-60), tritiated thymidine uptake; type: cell-based; details: for IC50, inhibition of DNA synthesis (tritiated thymidine uptake): 90 minutes at 37 C
Description: The structure and identification of the seven isolated compounds was then determined using NMR. […] Verification after NMR was made by comparing mass spectra with the literature and by comparing the spectra with authentic compounds using thin layer chromatography. […] Using a well-established screening assay for cytotoxicity, the compounds were tested in a human leukemia cell line (HL-60) for their ability to inhibit growth of these cells in culture. This assay is routinely used by those of skill to determine the potential anti-carcinogenic activity of chemicals where anti-carcinogenic activity is correlated with growth inhibitory activity in HL-60 cells. Uptake of tritiated thymidine into cells, a measure of the level of DNA synthesis and thus cell growth, was determined in the cells both with and without the presence of each of the seven blueberry extract compounds.
HL-60 cells were cultivated in 1.62% RPMI 1640 medium supplemented with 10% fetal calf serum and 1% penicillin-streptomycin. The concentration of the cells in the medium was kept between 2 and 10×10^5 counts/ml. Cell concentrations were counted at the beginning of each experiment with a microscope. Cells were washed without antibiotics and collected by centrifugation. The cells were then diluted to 3×10^5 counts/ml with cold medium without antibiotics. Tritiated thymidine was mixed into the cold medium at a concentration of 150 Ci/mmol. The samples to be tested were dissolved in DMSO at concentrations between 0.1 g/L and 50 ug/L. A 2 microliter sample of each concentration was added to 6 ml tubes, using triplicate tubes for reproducibility. A 1 ml sample of the HL-60 cell culture was added to each tube, […]. The tubes were incubated at 37 C for 90 minutes and then cooled over ice. Cold PBS was added to each tube and they were centrifuged at 1000 rpm for 5 minutes. The supernatant was discarded and distilled water mixed with the cells. Free and bound tritiated thymidine levels were measured by scintillation counting.

Structure (SMILES) | Induction Time [1] [h] | Anti-oxidant Index [1] | cytotoxicity (in words) [2] | inhibition of DNA synthesis / cell growth in HL-60 cells (in words) (HL-60 cells) | IC50, inhibition of DNA synthesis (tritiated thymidine uptake) (HL-60 cells) [ppm] | oxidation-inhibition activity (in words) [1]
O=Cc1ccc(CO)o1 [5-Hydroxymethyl-2-furfural, 5-hydroxymethyl-2-furfural] | 2.1 | 1.00 | – | – | – | –
C[C@H]1[C@H](C)CC[C@]2(C(=O)O)CC[C@]3(C)C(=CC[C@@H]4[C@@]5(C)CC[C@H](O)C(C)(C)[C@@H]5CC[C@]43C)[C@H]12 [Urosolic Acid, urosolic acid] | 2.2 | – | marginal cytotoxicity | effectively inhibit DNA synthesis | 1.5 | –
O=C(O)c1cc(O)c(O)c(O)c1 [Gallic Acid, gallic acid] | 28.1 | 13.38 | – | – | – | high oxidation-inhibition activity
COc1cc(C(=O)O)cc(OC)c1O [Syringic Acid, syringic acid] | 3.1 | 1.48 | – | – | – | –
CC[C@H](CC[C@@H](C)[C@H]1CC[C@H]2[C@@H]3CC=C4C[C@@H](O[C@@H]5O[C@H](CO)[C@@H](O)[C@H](O)[C@H]5O)CC[C@]4(C)[C@H]3CC[C@]12C)C(C)C [Sitosterol-β-D-glucoside, sitosterol-β-D-glucoside] | 2.4 | 1.14 | – | – | – | –
Cc1cc(C(C)(C)C)c(O)c(C(C)(C)C)c1 [BHT, reference compound] | 5.8 | 2.76 | – | – | – | –
C[C@@H]1CC[C@]2(C(=O)O)CC[C@]3(C)C(=CC[C@@H]4[C@@]5(C)CC[C@H](O)C(C)(C)[C@@H]5CC[C@]43C)[C@@H]2[C@]1(C)O [3β,19α-Dihydroxy-urs-12-en-28-oic Acid, 3β,19α-dihydroxy-urs-12-en-28-oic acid] | 2.2 | 1.05 | – | effectively inhibit DNA synthesis | 1 | –
O=C(O)c1ccc(O)c(O)c1 [Protocatechuic Acid, protocatechuic acid] | 18.5 | 8.81 | – | – | – | high oxidation-inhibition activity

— US20050170022A1, “Extracts of blueberries with anti-oxidant and anti-cancer properties” (priority 2001, published 2005)
